Where a name gives a salt, the structure may show the parent alone.
Test system: C57BL/6 mice
Assay: animal or person
Format: in vivo
Details: Mus musculus, sc, 0.5 h, s.c. administration, 30 min, 55° C. water, read-out: ED50 (mg/kg) at 30 min on C57BL/6 mice in Warm-water Tail-flick Test

`CCOCC1(CCc2ccsc2)CCN(Cc2cnn(C)c2)C1` (stereo not drawn) [Compound 250, 4-((3-(ethoxymethyl)-3-(2-(thiophen-3-yl)ethyl)pyrrolidin-l-yl)methyl)-1-methyl-1H-pyrazole] and `CCOCC1(CCc2ccsc2)CCN(Cc2ccc(C)nc2)C1` (stereo not drawn) [Compound 277, 5-((3-(ethoxymethyl)-3-(2-(thiophen-3-yl)ethyl)pyrrolidin-l-yl)methyl)-2-methylpyridine] cannot be ordered by ED50: less than 10 mg/kg for the first, less than 10 mg/kg for the second.

`CCOCC1(CCc2cccs2)CCN(Cc2cccnc2)C1` (centres unmarked) [Compound 251, 3-((3-(ethoxymethyl)-3-(2-(thiophen-2-yl)ethyl)pyrrolidin-1-yl)methyl)pyridine] and `CCOC[C@@]1(CCc2cccs2)CCN(Cc2cccnc2)C1` [Compound 275, (S)-3-((3-(ethoxymethyl)-3-(2-(thiophen-2-yl)ethyl)pyrrolidin-1-yl)methyl)pyridine] cannot be ordered by ED50: less than 10 mg/kg for the first, less than 10 mg/kg for the second.

`CCOCC1(CCc2ccsc2)CCN(Cc2cccnc2)C1` (centres unmarked) [Compound 252] and `CCOCC1(CCc2csc(C)c2)CCN(Cc2cccnc2)C1` (centres unmarked) [Compound 287, 3-((3-(ethoxymethyl)-3-(2-(5-methylthiophen-yl)ethyl)pyrrolidin-1-yl)methyl)pyridine] cannot be ordered by ED50: less than 10 mg/kg for the first, less than 10 mg/kg for the second.

`CCOCC1(CCc2ccsc2)CCN(Cc2cnc(C)s2)C1` (stereo not drawn) [Compound 253, 5-((3-(ethoxymethyl)-3-(2-(thiophen-3-yl)ethyl)pyrrolidin-l-yl)methyl)-2-methylthiazole] and `CCOCC1(CCc2ccsc2)CCN(Cc2cnc(C)s2)CC1` [Compound 255, 5-((4-(ethoxymethyl)-4-(2-(thiophen-3-yl)ethyl)piperidin-1-yl)methyl)-2-methylthiazole] cannot be ordered by ED50: greater than 10 mg/kg for the first, greater than 10 mg/kg for the second.

Going from `CCOCC1(CCc2cccs2)CCN(Cc2cnc(C)s2)CC1` [Compound 254] to `CCOCC1(CCc2cccs2)CCN(Cc2cnn(CC)c2)CC1` [Compound 256, 4-(ethoxymethyl)-1-((l-ethyl-1H-pyrazol-4-yl)methyl)-4-(2-(thiophen-2-yl)ethyl)piperidine], the ED50 falls from greater than 10 mg/kg to less than 10 mg/kg.

`Cc1cncc(CN2CCC(CCc3ccccc3)(C3CCCO3)C2)c1` (centres unmarked) [Compound 257, 3-methyl-5-((3-phenethyl-3-(tetrahydrofuran-2-yl)pyrrolidin-1-yl)methyl)pyridine] and `Cc1ccc(CN2CCC(CCc3ccccc3)(C3CCCO3)C2)cn1` (centres unmarked) [Compound 264, 2-methyl-5-((3-phenethyl-3-(tetrahydrofuran-2-yl)pyrrolidin-1-yl)methyl)pyridine] cannot be ordered by ED50: less than 10 mg/kg for the first, less than 10 mg/kg for the second.

First: Cc1ccncc1CN1CCC(CCc2ccccc2)(C2CCCO2)C1 (centres unmarked) [Compound 262, 4-methyl-3-((3-phenethyl-3-(tetrahydrofuran-2-yl)pyrrolidin-1-yl)methyl)pyridine]
Second: Cc1ncccc1CN1CCC(CCc2ccccc2)(C2CCCO2)C1 (centres unmarked) [Compound 263, 2-methyl-3-((3-phenethyl-3-(tetrahydrofuran-2-yl)pyrrolidin-1-yl)methyl)pyridine]
The ED50 of the first is higher: greater than 10 mg/kg for the first, less than 10 mg/kg for the second.

`c1ccc(CCC2(C3CCCO3)CCN(Cc3cnn(-c4cccnc4)c3)C2)cc1` (centres unmarked) [Compound 265, 3-(4-((3-phenethyl-3-(tetrahydrofuran-2-yl)pyrrolidin-1-yl)methyl)-1H-pyrazol-1-yl)pyridine] and `COc1ccc(CN2CCC(CCc3ccccc3)(C3CCCO3)C2)cn1` (centres unmarked) [Compound 274, 2-methoxy-5-((3-phenethyl-3-(tetrahydrofuran-2-yl)pyrrolidin-1-yl)methyl)pyridine] cannot be ordered by ED50: greater than 10 mg/kg for the first, greater than 10 mg/kg for the second.

Compared with `CCOCC1(CCc2ccc(C)s2)CCN(Cc2cnn(C)c2)CC1` [Compound 266, 4-(ethoxymethyl)-1-((1-methyl-1H-pyrazol-4-yl)methyl)-4-(2-(5-methylthiophen-2-yl)ethyl)piperidine], `CCOCC1(CCc2cc(C)cs2)CCN(Cc2cnn(C)c2)CC1` [Compound 267, 4-(ethoxymethyl)-1-((1-methyl-1H-pyrazol-4-yl)methyl)-4-(2-(4-methylthiophen-2-yl)ethyl)piperidine] is lower in ED50: greater than 10 mg/kg for the first, less than 10 mg/kg for the second.

`CCOCC1(CCc2sccc2C)CCN(Cc2cnn(C)c2)CC1` [Compound 268, 4-(ethoxymethyl)-1-((1-methyl-1H-pyrazol-4-yl)methyl)-4-(2-(3-methylthiophen-2-yl)ethyl)piperidine] and `CCOCC1(CCc2ccsc2C)CCN(Cc2cnn(C)c2)CC1` [Compound 278, 4-(ethoxymethyl)-1-((1-methyl-1H-pyrazol-4-yl)methyl)-4-(2-(2-methylthiophen-3-yl)ethyl)piperidine] cannot be ordered by ED50: less than 10 mg/kg for the first, less than 10 mg/kg for the second.

`CCOC[C@@]1(CCc2ccccc2)CCN(Cc2cccnc2)C1` [Compound 269] and `CCOCC1(CCc2ccccc2)CCN(Cc2ccc(C)nc2)C1` (centres unmarked) [Compound 276, 5-((3-(ethoxymethyl)-3-phenethylpyrrolidin-1-yl)methyl)-2-methylpyridine] cannot be ordered by ED50: less than 10 mg/kg for the first, less than 10 mg/kg for the second.

`CCOCC1(CCc2cccs2)CCN(Cc2cnn(C(C)C)c2)CC1` [Compound 270, 4-(ethoxymethyl)-1-((1-isopropyl-1H-pyrazol-4-yl)methyl)-4-(2-(thiophen-2-yl)ethyl)piperidine HCl] and `CCOCC1(CCc2cccs2)CCN(Cc2cnn(Cc3ccccc3)c2)CC1` [Compound 271, 1-((1-benzyl-1H-pyrazol-4-yl)methyl)-4-(ethoxymethyl)-4-(2-(thiophen-2-yl)ethyl)piperidine] cannot be ordered by ED50: greater than 10 mg/kg for the first, greater than 10 mg/kg for the second.

First: C1=CC(C2(CCc3ccsc3)CCN(Cc3cccnc3)C2)OC1 (centres unmarked) [Compound 272, 3-((3-(2,5-dihydrofuran-2-yl)-3-(2-(thiophen-yl)ethyl)pyrrolidin-1-yl)methyl)pyridine]
Second: C1=CC(C2(CCc3cccs3)CCN(Cc3cccnc3)CC2)OC1 (centres unmarked) [Compound 293, 3-((4-(2,5-dihydrofuran-2-yl)-4-(2-(thiophen-2-yl)ethyl)piperidin-1-yl)methyl)pyridine]
The ED50 of the first is lower: less than 10 mg/kg for the first, greater than 10 mg/kg for the second.

`Cc1ccc(CN2CCC(CCc3ccccc3)(C3CCCO3)C2)c(C)n1` (centres unmarked) [Compound 273, 2,6-dimethyl-3-((3-phenethyl-3-(tetrahydrofuran-2-yl)pyrrolidin-1-yl)methyl)pyridine] and `CCOCC1(CCc2ccccc2)CCN(C(C)c2ccc(C)nc2)C1` (centres unmarked) [Compound 294, 5-(1-(3-(ethoxymethyl)-3-phenethyl-pyrrolidin-1-yl)ethyl)-2-methylpyridine] cannot be ordered by ED50: less than 10 mg/kg for the first, less than 10 mg/kg for the second.

First: CCOCC1(CCc2csc(C)c2)CCN(Cc2cnn(C)c2)CC1 [Compound 279, 4-(ethoxymethyl)-1-((1-methyl-1H-pyrazol-4-yl)methyl)-4-(2-(5-methylthiophen-3-yl)ethyl)piperidine]
Second: CCOCC1(CCc2cscc2C)CCN(Cc2cnn(C)c2)CC1 [Compound 280, 4-(ethoxymethyl)-1-((1-methyl-1H-pyrazol-4-yl)methyl)-4-(2-(4-methylthiophen-3-yl)ethyl)piperidine]
The ED50 of the first is higher: greater than 10 mg/kg for the first, less than 10 mg/kg for the second.

`CCOCC1(CCc2cc(C)sc2C)CCN(Cc2cnn(C)c2)CC1` [Compound 281, 4-(2-(2,5-dimethylthiophen-3-yl)ethyl)-4-(ethoxymethyl)-1-((1-methyl-1H-pyrazol-4-yl)methyl)piperidine] and `CCOCC1(CCc2c(C)csc2C)CCN(Cc2cnn(C)c2)CC1` [Compound 282, 4-(2-(2,4-dimethylthiophen-3-yl)ethyl)-4-(ethoxymethyl)-1-((1-methyl-1H-pyrazol-4-yl)methyl)piperidine] cannot be ordered by ED50: greater than 10 mg/kg for the first, greater than 10 mg/kg for the second.

`CCOCC1(CCc2sccc2C)CCN(Cc2cccnc2)C1` (centres unmarked) [Compound 283, 3-((3-(ethoxymethyl)-3-(2-(3-methylthiophen-2-yl)ethyl)pyrrolidin-1-yl)methyl)pyridine] and `CCOCC1(CCc2ccsc2C)CCN(Cc2cccnc2)C1` (centres unmarked) [Compound 286, 3-((3-(ethoxymethyl)-3-(2-(2-methylthiophen-yl)ethyl)pyrrolidin-1-yl)methyl)pyridine] cannot be ordered by ED50: less than 10 mg/kg for the first, less than 10 mg/kg for the second.

`CCOCC1(CCc2cc(C)cs2)CCN(Cc2cccnc2)C1` (centres unmarked) [Compound 284, 3-((3-(ethoxymethyl)-3-(2-(4-methylthiophen-2-yl)ethyl)pyrrolidin-1-yl)methyl)pyridine] and `CCOCC1(CCc2cc(C)cs2)CCN(Cc2ccc(C)nc2)C1` (centres unmarked) [Compound 297, 5-((3-(ethoxymethyl)-3-(2-(4-methylthiophen-2-yl)ethyl)pyrrolidin-1-yl)methyl)-2-methylpyridine] cannot be ordered by ED50: less than 10 mg/kg for the first, less than 10 mg/kg for the second.

Going from `CCOCC1(CCc2ccc(C)s2)CCN(Cc2cccnc2)C1` (centres unmarked) [Compound 285, 3-((3-(ethoxymethyl)-3-(2-(5-methylthiophen-2-yl)ethyl)pyrrolidin-1-yl)methyl)pyridine] to `CCOCC1(CCc2cscc2C)CCN(Cc2cccnc2)C1` (centres unmarked) [Compound 288, 3-((3-(ethoxymethyl)-3-(2-(4-methylthiophen-yl)ethyl)pyrrolidin-1-yl)methyl)pyridine], the ED50 falls from greater than 10 mg/kg to less than 10 mg/kg.

Compared with `CCOCC1(CCc2ccc(Cl)cc2)CCN(Cc2cccnc2)C1` (centres unmarked) [Compound 289, 3-((3-(4-chlorophenethyl)-3-(ethoxy-methyl)pyrrolidin-1-yl)methyl)pyridine], `CCOCC1(CCc2ccc(F)cc2)CCN(Cc2cccnc2)C1` (centres unmarked) [Compound 290, 3-((3-(ethoxy-methyl)-3-(4-fluoro-phenethyl)pyrrolidin-1-yl)methyl)pyridine] is lower in ED50: greater than 10 mg/kg for the first, less than 10 mg/kg for the second.

`CCOCC1(CCc2ccc(C)cc2)CCN(Cc2cccnc2)C1` (centres unmarked) [Compound 291, 3-((3-(ethoxymethyl)-3-(4-methyl-phenethyl)pyrrolidin-1-yl)methyl)pyridine] and `CCOCC1(CCc2ccc(OC)cc2)CCN(Cc2cccnc2)C1` (centres unmarked) [Compound 292, 3-((3-(ethoxymethyl)-3-(4-methoxy-phenethyl)pyrrolidin-1-yl)methyl)pyridine] cannot be ordered by ED50: greater than 10 mg/kg for the first, greater than 10 mg/kg for the second.

`CCOCC1(CCc2ccc(F)cc2)CCN(C(C)c2ccc(C)nc2)C1` (centres unmarked) [Compound 295, 5-(1-(3-(ethoxymethyl)-3-(4-fluoro-phenethyl)pyrrolidin-1-yl)ethyl)-2-methylpyridine] and `CCOCC1(CCc2ccc(F)cc2)CCN(Cc2ccc(C)nc2)C1` (centres unmarked) [Compound 296, 5-((3-(ethoxymethyl)-3-(4-fluoro-phenethyl)pyrrolidin-1-yl)methyl)-2-methylpyridine] cannot be ordered by ED50: less than 10 mg/kg for the first, less than 10 mg/kg for the second.
